Earlier results on one molecule are cited in patent publication US20130309333A1, “METHOD AND COMPOSITION FOR TREATING FELINE SKIN DISORDERS” (priority 2011, published 2013).

Each structure is given as a SMILES string.

This data set concerns cats. The following applies: general knowledge.

`Nc1cc(N2CCCCC2)nc(N)[n+]1[O-]` [minoxidil]: the toxicity to cats entry is “highly toxic to cats”.
